Test results from patent publication EP0974360A2, “Pharmaceutical preparations for use in combatting or preventing surface infections caused by microorganisms” (N.V. Nutricia, priority 1998, dated 2000).

Assays:
[1] = tested on: C. glabrata Y110; assay: Synergy experiments (8 by 8 dilution matrix, growth by UV turbidity at 630 nm); type: cell-based; details: for UV (Candida growth, 630 nm): 24 hours
[2] = tested on: C. glabrata Y110; assay: MIC and growth inhibition at several pH's in SLM or RPMI medium; type: cell-based; details: figures 5 and 6

Compound: Nc1nc(=O)[nH]cc1F [5-Fluorocytosine, 5-fluorocytosine]
- decline of effective concentration as compared to its MIC value ([1]; 0.0008 µg/ml 5-fluorocytosine with 0.02 mg/ml lactoferrin): 30 times

Compound: OC(Cn1cncn1)(Cn1cncn1)c1ccc(F)cc1F [Fluconazole, fluconazole]
- effect of an increase in pH of the medium on inhibition [2]: more efficient inhibition
- UV (Candida growth, 630 nm) ([1]; Fluconazole 0.2 mg/ml alone): 0.003
- UV (Candida growth, 630 nm) ([1]; Fluconazole 0.33 mg/ml alone): 0.003
- UV (Candida growth, 630 nm) ([1]; Fluconazole 0.5 mg/ml alone): 0.004
